According to patent US20220387630A1, “METHOD FOR SCREENING ANTICANCER AGENT AND COMBINATION DRUG OF KINASE INHIBITORS FOR TREATMENT OF PANCREATIC CANCER” (National University Corporation Hokkaido University, priority 2020, published 2022):

Tests used:
MIA PaCa-2 cells = test: MTS cell viability assay in human pancreatic cancer cells; format: cell-based; conditions: in combination with Trametinib, 72 hours
Protocol: Example 4 Evaluation of efficacy of kinase inhibitor with use of human pancreatic cancer cells Human pancreatic cancer cell line (MIA PaCa-2) was purchased from National Institute of RIKEN BioResource Research Center, and cultured in Dulbecco's Modified Eagle's Medium (Nacalai tesque) supplemented with 10% fetal bovine serum (Gibco) and 1% penicillin-streptomycin (Nacalai tesque) at 37° C. in the presence of 5% CO2.
Trametinib (DMSO only, 1 μM, 300 μM), Adavosertib (300 μM, 1 mM), AD80 (30 μM, 3 mM), Alisertib (30 μM, 1 mM) and BI-831266 (3 μM, 3 mM) was each prepared and diluted to 100-fold in the medium to produce a drug solution.
MIA PaCa-2 cells were seeded into a 96-well plate at 1000 cells/well (in 100 μL medium). After culturing for one day, 10 μL of the drug solution of Trametinib alone or Trametinib combined with another kinase inhibitor was added to the cells in each well on the 96-well plate (0.2% final concentration of DMSO). Each combination was tested in five wells. After the addition of the drug solution, the cells were cultured at 37° C. for 72 hours in the presence of 5% CO2, and then the cell viability was measured using MTS assay (CellTiter 96 (registered trademark), Promega). The viability is expressed as a ratio to that of a control (solvent only).

4-hit flies (non-GFP) = test: Efficacy of kinase inhibitors on 4-hit fly survival rate (drug food); format: in vivo, Drosophila; conditions: used alone; 1 M Trametinib in food; reared at 25° C. for 13 days
Protocol: Trametinib (MEK inhibitor), Adavosertib (referred also to as MK-1775, WEE1 inhibitor), AD80 (FRK inhibitor), Y-27632 (ROCK inhibitor), Alisertib (AURKA inhibitor, the above all purchased from MedChem Express), BI-831266 (AURKB inhibitor, obtained from Boehringer Ingelheim) was each dissolved in DMSO (SIGMA) and stored at −20° C.
Agar (Wako), brewers' yeast (MP Bio), yeast extract (Sigma Aldrich), bacto casitone (BD), sucrose (Wako), glucose (Wako), MgCl2 (Wako) CaCl2 (Wako), Propionic acid (Wako), and Mold inhibitor (10% Methyl-4-hydroxy Benzoate in 95% Ethanol; Wako) were dissolved in ultrapure water to prepare a standard food. While kept at 50° C., the kinase inhibitor (Trametinib alone or a combination of Trametinib and another kinase inhibitor) dissolved in DMSO was added for mixing. The resulting solution was cooled to obtain a drug food. The final concentrations of the compounds in the food were […] for Trametinib, 100 μM for Adavosertib, 50 μM for AD80, 10 μM for Y-27632, and 100 μM for BI-831266.
The UAS-Ras^G12D, UAS-p53^shRNA, UAS-CycE, UAS-Med^shRNA fly produced in Example 1 was mated with a Ser-gal4 fly (Bloomington Drosophila Stock Center). […] The eggs were reared at 25° C. for 13 days, and survival rate of 4-hit flies (non-GFP) reared on each food was calculated by dividing the number of eclosed pupae by the total number of pupae.

Row | SMILES | cell viability compared to that of Trametinib used alone (MIA PaCa-2 cells) | increase of survival rate of 4-hit flies (non-GFP) (4-hit flies (non-GFP))
1 | C=CCn1c(=O)c2cnc(Nc3ccc(N4CCN(C)CC4)cc3)nc2n1-c1cccc(C(C)(C)O)n1 [Adavosertib] | greatly reduced the cell viability | 
2 | CC(=O)Nc1cccc(-n2c(=O)n(C3CC3)c(=O)c3c(Nc4ccc(I)cc4F)n(C)c(=O)c(C)c32)c1 [Trametinib] |  | 20%
3 | COc1cc(Nc2ncc3c(n2)-c2ccc(Cl)cc2C(c2c(F)cccc2OC)=NC3)ccc1C(=O)O [Alisertib] | greatly reduced the cell viability | 
4 | CC(C)n1nc(-c2ccc(NC(=O)Nc3cc(C(F)(F)F)ccc3F)cc2)c2c(N)ncnc21 [AD80] | greatly reduced the cell viability | 
